ChEMBL document CHEMBL5052835, “Slc26a3 inhibitors and use thereof” (2021)
Activity calls are given as the source filed them. The rule behind the calls is not given here.

Tests used:
[1] = Inhibition of Slc26a3-mediated HCO3- influx/Cl efflux in rat FRT cells measured by fluorescence assay; assay type: cell-based
[2] = biological target: T1, Solute carrier family 26 member 6 (Mus musculus) (UniProt Q8CIW6); assay: Inhibition of mouse Slc26a6-mediated Cl-/ I- exchange at 10 uM measured by cell-based fluorescence assay
T1 sequence (whole entry): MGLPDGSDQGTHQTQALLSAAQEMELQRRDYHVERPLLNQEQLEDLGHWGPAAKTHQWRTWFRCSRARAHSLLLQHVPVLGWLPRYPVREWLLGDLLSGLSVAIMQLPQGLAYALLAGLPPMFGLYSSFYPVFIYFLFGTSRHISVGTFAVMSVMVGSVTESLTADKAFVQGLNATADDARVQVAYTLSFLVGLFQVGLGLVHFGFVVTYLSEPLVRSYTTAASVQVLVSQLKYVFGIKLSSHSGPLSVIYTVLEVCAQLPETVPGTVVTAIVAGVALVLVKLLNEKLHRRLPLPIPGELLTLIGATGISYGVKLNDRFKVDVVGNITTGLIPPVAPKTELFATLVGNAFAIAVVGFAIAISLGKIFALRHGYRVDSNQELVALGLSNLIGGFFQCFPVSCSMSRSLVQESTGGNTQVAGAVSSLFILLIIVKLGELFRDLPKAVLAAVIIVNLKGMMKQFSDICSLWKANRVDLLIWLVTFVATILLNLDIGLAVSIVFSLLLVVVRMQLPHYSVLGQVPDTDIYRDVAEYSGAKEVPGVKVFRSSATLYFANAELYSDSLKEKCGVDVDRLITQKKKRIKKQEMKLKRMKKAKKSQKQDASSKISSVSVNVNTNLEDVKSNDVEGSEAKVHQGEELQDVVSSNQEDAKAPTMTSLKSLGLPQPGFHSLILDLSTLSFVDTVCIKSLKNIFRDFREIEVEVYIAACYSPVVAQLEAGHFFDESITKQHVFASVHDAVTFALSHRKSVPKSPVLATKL

Mus musculus [3] = assay: Inhibition of oxalate absorption in high oxalate and low calcium diet-induced oxalate nephropathy model of mouse at 5 mg/kg, po assessed as reduction in crystal deposition in kidney; assay type: functional, organism-based
Mus musculus [4] = assay: In vivo inhibition of slc26a3 in loperamide-induced constipation model of cystic fibrosis mouse at 5 mg/kg, po assessed as reduction in pellet number; assay type: functional, organism-based
HBE = assay: Inhibition of CaCC in human HBE cells at 10 uM pretreated with ATP assessed as effect on short-circuit current responses; assay type: cell-based
Mus musculus [5] = assay: Inhibition of oxalate absorption in high oxalate and low calcium diet-induced oxalate nephropathy model of mouse at 5 mg/kg, po assessed as reduction in kidney damage; assay type: functional, organism-based
Mus musculus [6] = organism: Mus musculus; assay: Inhibition of mouse CFTR at 10 uM measured by cell-based fluorescence assay
Colon = assay: Inhibition of fluid absorption in distal colonic loop isolated from female CD-1 mouse at 10 uM assessed as effect on reduction in loop weight/length ratio; assay type: functional, tissue-based
FRT = assay: Inhibition of Slc26a3-mediated Cl-/ I- exchange in rat FRT cells assessed as half-life measured by fluorescence assay; assay type: cell-based
Mus musculus [7] = assay: In vivo inhibition of slc26a3 in loperamide-induced constipation model of female CD-1 mouse at 5 mg/kg, po assessed as reduction in stool water content; assay type: functional, organism-based
Pendrin (Mus musculus) = biological target: T2, Pendrin (Mus musculus) (UniProt Q9R155); assay: Inhibition of mouse Slc26a4-mediated Cl-/ I- exchange at 10 uM measured by cell-based fluorescence assay
T2 sequence (whole entry): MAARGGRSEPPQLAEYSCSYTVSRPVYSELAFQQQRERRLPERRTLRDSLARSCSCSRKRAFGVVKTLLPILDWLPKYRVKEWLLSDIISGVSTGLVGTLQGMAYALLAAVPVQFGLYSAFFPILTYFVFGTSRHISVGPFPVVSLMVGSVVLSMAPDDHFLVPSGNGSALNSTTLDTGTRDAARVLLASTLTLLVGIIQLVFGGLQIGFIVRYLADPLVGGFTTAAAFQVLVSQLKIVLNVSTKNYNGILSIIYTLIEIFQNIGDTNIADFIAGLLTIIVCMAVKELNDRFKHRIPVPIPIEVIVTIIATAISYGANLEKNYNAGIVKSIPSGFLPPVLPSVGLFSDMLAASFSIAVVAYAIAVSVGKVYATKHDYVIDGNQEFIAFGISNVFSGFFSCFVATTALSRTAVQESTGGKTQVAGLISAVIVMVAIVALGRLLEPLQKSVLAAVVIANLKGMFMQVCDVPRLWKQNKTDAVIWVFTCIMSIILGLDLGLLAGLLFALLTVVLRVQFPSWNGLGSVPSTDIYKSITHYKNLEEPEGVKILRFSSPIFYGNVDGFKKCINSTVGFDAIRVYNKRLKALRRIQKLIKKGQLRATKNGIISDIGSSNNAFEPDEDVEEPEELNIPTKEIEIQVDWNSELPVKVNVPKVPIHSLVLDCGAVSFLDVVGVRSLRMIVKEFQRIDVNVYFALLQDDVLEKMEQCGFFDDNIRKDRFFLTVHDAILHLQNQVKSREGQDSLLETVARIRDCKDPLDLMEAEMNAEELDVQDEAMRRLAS

Mus musculus [8] = assay: In vivo inhibition of slc26a3 in loperamide-induced constipation model of cystic fibrosis mouse at 5 mg/kg, po assessed as reduction in stool water content; assay type: functional, organism-based
Mus musculus [9] = assay: In vivo inhibition of slc26a3 in loperamide-induced constipation model of female CD-1 mouse at 5 mg/kg, po assessed as reduction in pellet number; assay type: functional, organism-based
Mus musculus [10] = assay: Inhibition of oxalate absorption in sodium oxalate-induced acute hyperoxaluria mouse model at 5 mg/kg, po; assay type: functional, organism-based
Mus musculus [11] = organism: Mus musculus; assay: Inhibition of mouse Slc26a9-mediated Cl-/ I- exchange at 10 uM measured by cell-based fluorescence assay

- IC50 [1]: 0.1 µM
- inhibition [2]: inactive
- inhibition (Pendrin (Mus musculus)): inactive
Compound: Cc1c(CC(=O)O)c(=O)oc2c(C)c(OCc3cccc(Br)c3)ccc12
- inhibition (Mus musculus [3]): Active
- inhibition (Mus musculus [4]): Active
- inhibition (HBE): inactive
- inhibition (Mus musculus [5]): Active
- inhibition (Mus musculus [6]): inactive
- inhibition (Colon): Active
- T1/2 (FRT): 30 s
- inhibition (Mus musculus [7]): Active
- inhibition (Mus musculus [8]): Active
- inhibition (Mus musculus [9]): Active
- inhibition (Mus musculus [10]): Active
- inhibition (Mus musculus [11]): inactive
